Patent US9586978B2, “Anti-viral compounds” (AbbVie Inc., priority 2009, dated 2017)
pEC50: −log10 of the molar value. Read-outs that look alike come from different tables or passages of the source.

How the values were obtained:
[1] = system: HCV genotype 1b replicon; assay: HCV genotype 1b replicon assay; assay type: cell-based, Hepatitis C virus; settings: Hepatitis C virus
Text: (§1) [drawing 14] employs a biphenyl linker between the imidazole moieties. See WO2008021927(BMS). The EC50 values of BMS-790052 against different HCV genotypes were shown by Nettles et al., “BMS-790052 is a First-in-class Potent Hepatitis C Virus (HCV) NS5A Inhibitor for Patients with Chronic HCV Infection: Results from a Proof-of-concept Study”, 59th Annual Meeting of the American Association for the Study of Liver Diseases (Oct. 31-Nov. 1, 2008, San Francisco, Calif.; www.natap.org/2008/AASLD/AASLD_06.htm). […] See also Gao et al., NATURE 465:96-100 (2010). The compounds in Table 1 use different linkers between the imidazole moieties. Table 1 depicts the EC50 values of these compounds when tested using respective replicon assays in the presence of 5% (v/v) fetal bovine serum (FBS).
(§2) Table 2 compares compounds containing unsubstituted benzimidazole to those containing halo-substituted benzimidazole. Anti-viral activities were assessed using wild-type replicons (e.g., 1b WT or 1a WT) as well as replicons containing specific NS5A mutations (e.g., 1b L28T, 1b Y93H, 1a L31V, 1a Y93C, 1a M28V, or 1a Q30E) in the absence of FBS.
(§3) Table 3 compares compounds with different linkers between the benzimidazole moieties. Anti-viral activities were determined using 1a and 1b replicon assays. “HP” refers to human plasma. […] As compared to the phenyl linker

[2] = system: HCV genotype 1a replicon; assay: HCV genotype 1a replicon assay; assay type: cell-based, Hepatitis C virus; settings: Hepatitis C virus
Text: as §1, §2, §3

[3] = system: HCV genotype 2b replicon; assay: HCV genotype 2b replicon assay; assay type: cell-based, Hepatitis C virus; settings: Hepatitis C virus, absence of human plasma; Table 5; read-out: EC50 (nM, in the absence of HP) 2b
Text: as §1

[4] = system: HCV genotype 3a replicon; assay: HCV genotype 3a replicon assay; assay type: cell-based, Hepatitis C virus; settings: Hepatitis C virus, read-out: EC50 (nM, in the absence of HP) 3a, absence of human plasma; Table 5
Text: as §1

[5] = system: HCV genotype 2a replicon; assay: HCV genotype 2a replicon assay; assay type: cell-based, Hepatitis C virus; settings: Hepatitis C virus, absence of human plasma; Table 5; read-out: EC50 (nM, in the absence of HP) 2a
Text: as §1

[6] = system: HCV genotype 4a replicon; assay: HCV genotype 4a replicon assay; assay type: cell-based, Hepatitis C virus; settings: Hepatitis C virus, absence of human plasma; Table 5; read-out: EC50 (nM, in the absence of HP) 4a
Text: as §1

[7] = system: HCV 1b-Con1 replicon; assay: HCV 1b-Con1 replicon assay in the presence of 5% FBS (luciferase reporter); assay type: cell-based; settings: Hepatitis C virus
[8] = 5% FBS and 40% human plasma, Table 3, read-out: EC50 (nM, in the presence of 5% FBS and 40% HP) 1b
[9] = 5% FBS, Table 3, read-out: EC50 (nM, in the presence of 5% FBS) 1b
[10] = 5% FBS and 40% human plasma, Table 3, read-out: EC50 (nM, in the presence of 5% FBS and 40% HP) 1a
[11] = 5% FBS, Table 3, read-out: EC50 (nM, in the presence of 5% FBS) 1a
[12] = 40% human plasma, Table 5, read-out: EC50 (nM, in the presence of 40% HP) 1b
[13] = 40% human plasma, Table 5, read-out: EC50 (nM, in the presence of 40% HP) 1a

| SMILES | EC50 [3] [nM] | EC50 [4] [nM] | EC50 [5] [nM] | EC50 [1, 12] [nM] | EC50 [2, 13] [nM] | EC50 [6] [nM] | further results |
| --- | --- | --- | --- | --- | --- | --- | --- |
| COC(=O)N[C@H](C(=O)N1CCC[C@H]1c1nc2cc([C@H]3CC[C@H](c4ccc5[nH]c([C@@H]6CCCN6C(=O)[C@@H](NC(=O)OC)C(C)C)nc5c4)N3)ccc2[nH]1)C(C)C | – | – | – | – | – | – | EC50 [1, 8]: > 4500 nM; EC50 [1, 9]: > 250 nM; EC50 [2, 10]: 2500 to 8000 nM; EC50 [2, 11]: > 250 nM |
| COC(=O)N[C@H](C(=O)N1CCC[C@H]1c1nc2cc(-c3ccc(-c4ccc5nc([C@@H]6CCCN6C(=O)[C@@H](NC(=O)OC)C(C)C)[nH]c5c4)nc3)ccc2[nH]1)C(C)C | – | – | – | – | – | – | EC50 [1, 8]: < 3.2 nM; EC50 [1, 9]: < 0.32 nM; EC50 [2, 10]: < 3.2 nM; EC50 [2, 11]: < 0.32 nM |
| CCOC(=O)N[C@H](C(=O)N1CCC[C@H]1c1nc2cc(-c3ccc(-c4ccc5nc([C@@H]6CCCN6C(=O)[C@@H](NC(=O)OCC)C(C)C)[nH]c5c4)nc3)ccc2[nH]1)C(C)C | – | – | – | – | – | – | EC50 [1, 8]: 190 nM; EC50 [1, 9]: 2.9 nM; EC50 [2, 10]: 83 nM; EC50 [2, 11]: 6.8 nM |
| COC(=O)N[C@H](C(=O)N1CCC[C@H]1C(=O)Nc1ccc([C@@H]2CC[C@@H](c3ccc(NC(=O)[C@@H]4CCCN4C(=O)[C@@H](NC(=O)OC)C(C)C)cc3)N2)cc1)C(C)C | – | – | – | – | – | – | EC50 ([1]; 5% FBS and 40% human plasma, Table 4, read-out: EC50 (nM, in the presence of 5% FBS and 40% HP) 1b): 2400 nM; EC50 ([1]; 5% FBS, Table 4, read-out: EC50 (nM, in the presence of 5% FBS) 1b): 320 nM; EC50 ([2]; 5% FBS and 40% human plasma, Table 4, read-out: EC50 (nM, in the presence of 5% FBS and 40% HP) 1a): 1200 nM; EC50 ([2]; 5% FBS, Table 4, read-out: EC50 (nM, in the presence of 5% FBS) 1a): 290 nM |
| COC(=O)N[C@H](C(=O)N1CCC[C@H]1c1nc2cc([C@H]3CC[C@H](c4ccc5[nH]c([C@@H]6CCCN6C(=O)[C@@H](NC(=O)OC)C(C)C)nc5c4)N3c3ccc(C(C)(C)C)cc3)ccc2[nH]1)C(C)C | ≤ 0.05 | ≤ 0.05 | 0.2 | 0.3 | 0.1 | ≤ 0.05 | – |
| COC(=O)N[C@H](C(=O)N1CCC[C@H]1c1nc2cc([C@H]3CC[C@H](c4ccc5[nH]c([C@@H]6CCCN6C(=O)[C@@H](NC(=O)OC)C(C)C)nc5c4)N3c3ccc(C4CC4)cc3)ccc2[nH]1)C(C)C | ≤ 0.05 | ≤ 0.05 | ≤ 0.05 | 0.3 | 0.1 | ≤ 0.05 | – |
| COC(=O)N[C@H](C(=O)N1C[C@@H](OC)C[C@H]1c1nc2cc([C@H]3CC[C@H](c4ccc5[nH]c([C@@H]6C[C@H](OC)CN6C(=O)[C@@H](NC(=O)OC)C(C)C)nc5c4)N3c3ccc(C(C)(C)C)cc3)ccc2[nH]1)C(C)C | – | – | – | 0.8 | 0.3 | – | – |
| COC(=O)N[C@H](C(=O)N1CCC[C@H]1c1nc2cc([C@H]3CC[C@H](c4ccc5[nH]c([C@@H]6CCCN6C(=O)[C@@H](NC(=O)OC)C(C)C)nc5c4)N3c3ccc(N4CCCCC4)c(F)c3)ccc2[nH]1)C(C)C | ≤ 0.05 | ≤ 0.05 | ≤ 0.05 | 0.4 | 0.2 | ≤ 0.05 | – |
| COC(=O)N[C@H](C(=O)N1CCC[C@H]1c1nc2ccc([C@H]3CC[C@H](c4ccc5nc([C@@H]6CCCN6C(=O)[C@@H](NC(=O)OC)C(C)C)[nH]c5c4)N3c3ccc(C4CC4)cc3F)cc2[nH]1)C(C)C | ≤ 0.05 | ≤ 0.05 | ≤ 0.05 | 0.2 | 0.1 | ≤ 0.05 | – |
| COC(=O)N[C@H](C(=O)N1CCC[C@H]1c1nc2cc([C@H]3CC[C@H](c4ccc5[nH]c([C@@H]6CCCN6C(=O)[C@@H](NC(=O)OC)C(C)C)nc5c4)N3c3ccc(N4CCCCC4)c(Cl)c3)ccc2[nH]1)C(C)C | ≤ 0.05 | ≤ 0.05 | ≤ 0.05 | 0.2 | 0.2 | ≤ 0.05 | – |
| COC(=O)N[C@H](C(=O)N1CCC[C@H]1c1nc2cc([C@H]3CC[C@H](c4ccc5[nH]c([C@@H]6CCCN6C(=O)[C@@H](NC(=O)OC)C(C)C)nc5c4)N3c3ccc(N4CCCCC4)c(C(F)(F)F)c3)ccc2[nH]1)C(C)C | ≤ 0.05 | ≤ 0.05 | 0.5 | 0.3 | 0.6 | ≤ 0.05 | – |
| COC(=O)N[C@H](C(=O)N1CCC[C@H]1c1nc2cc([C@H]3CC[C@H](c4ccc5[nH]c([C@@H]6CCCN6C(=O)[C@@H](NC(=O)OC)C(C)C)nc5c4)N3c3ccc(N4CCCCC4)c(C#N)c3)ccc2[nH]1)C(C)C | ≤ 0.05 | ≤ 0.05 | 0.07 | 0.5 | 0.4 | ≤ 0.05 | – |
| COC(=O)N[C@H](C(=O)N1CCC[C@H]1c1nc2cc([C@H]3CC[C@H](c4ccc5[nH]c([C@@H]6CCCN6C(=O)[C@@H](NC(=O)OC)C(C)C)nc5c4)N3c3cc(F)c(N4CCCCC4)c(F)c3)ccc2[nH]1)C(C)C | ≤ 0.05 | ≤ 0.05 | ≤ 0.05 | 0.2 | 0.1 | ≤ 0.05 | – |
| COC(=O)N[C@H](C(=O)N1CCC[C@H]1c1nc2cc([C@H]3CC[C@H](c4ccc5[nH]c([C@@H]6CCCN6C(=O)[C@@H](NC(=O)OC)C(C)C)nc5c4)N3c3ccc(C4CC4)c(F)c3)ccc2[nH]1)C(C)C | ≤ 0.05 | ≤ 0.05 | ≤ 0.05 | 0.1 | 0.1 | ≤ 0.05 | – |
| COC(=O)N[C@H](C(=O)N1CCC[C@H]1C(=O)Nc1ccc([C@H]2CC[C@H](c3ccc(NC(=O)[C@@H]4CCCN4C(=O)[C@@H](NC(=O)OC)C(C)C)cc3)N2c2ccc(C(C)(C)C)cc2)cc1)C(C)C | ≤ 0.05 | ≤ 0.05 | ≤ 0.05 | 0.1 | 0.2 | ≤ 0.05 | – |
| COC(=O)N[C@H](C(=O)N1CCC[C@H]1c1nc2cc(C3CC[C@H](c4ccc5[nH]c([C@@H]6CCCN6C(=O)[C@@H](NC(=O)OC)C6CCOCC6)nc5c4)N3c3cc(F)c(N4CCCCC4)c(F)c3)ccc2[nH]1)C1CCOCC1 (stereo in doubt) [Example 3.18, dimethyl({(2R,5R)-1-[3,5-difluoro-4-(piperidin-1-yl)phenyl]pyrrolidine-2,5-diyl}bis{1H-benzimidazole-5,2-diyl(2S)pyrrolidine-2,1-diyl[(1S)-2-oxo-1-(tetrahydro-2H-pyran-4-yl)ethane-2,1-diyl]})biscarbamate] | – | – | – | – | – | – | pEC50 [7]: > 10.00 |
| COC(=O)N[C@H](C(=O)N1CCCC1c1nc2cc([C@H]3CCC(c4cc5nc([C@@H]6CCCN6C(=O)[C@@H](NC(=O)OC)C(C)C)[nH]c5cc4F)N3c3cnc(N4CCC(c5ccccc5)CC4)nc3)c(F)cc2[nH]1)C(C)C (stereo in doubt) [Example 3.46, methyl{(2S)-1-[(2S)-2-(6-fluoro-5-{(2R,5S)-5-{6-fluoro-2-[(2S)-1-{(2S)-2-[(methoxycarbonyl)amino]-3-methylbutanoyl}pyrrolidin-2-yl]-1H-benzimidazol-5-yl}-1-[2-(4-phenylpiperidin-1-yl)pyrimidin-5-yl]pyrrolidin-2-yl}-1H-benzimidazol-2-yl)pyrrolidin-1-yl]-3-methyl-1-oxobutan-2-yl}carbamate] | – | – | – | – | – | – | pEC50 [7]: > 10.00 |
| COC(=O)N[C@H](C(=O)N1CCC[C@H]1c1nc2cc([C@H]3CC[C@H](c4ccc5[nH]c([C@@H]6CCCN6C(=O)[C@@H](NC(=O)OC)C(C)C)nc5c4)N3c3ccc(N4CCCCC4=O)cc3)ccc2[nH]1)C(C)C [Example 1.2] | – | – | – | – | – | – | pEC50 [7]: < 5.00 |
| COC(=O)N[C@H](C(=O)N1CCC[C@H]1c1nc2cc([C@H]3CC[C@H](c4ccc5[nH]c([C@@H]6CCCN6C(=O)[C@@H](NC(=O)OC)C(C)C)nc5c4)N3c3cc(F)c(N4C[C@H]5CCCC[C@H]5C4)c(F)c3)ccc2[nH]1)C(C)C [Example 4.3, methyl{(2S)-1-[(2S)-2-{5-[(2R,5R)-1-{3,5-difluoro-4-[(3aR,7aS)-octahydro-2H-isoindol-2-yl]phenyl}-5-{2-[(2S)-1-{(2S)-2-[(methoxycarbonyl)amino]-3-methylbutanoyl}pyrrolidin-2-yl]-1H-benzimidazol-5-yl}pyrrolidin-2-yl]-1H-benzimidazol-2-yl}pyrrolidin-1-yl]-3-methyl-1-oxobutan-2-yl}carbamate] | – | – | – | 0.2 | 0.1 | – | – |
